The source of these data is ChEMBL document CHEMBL1201862, “PubChem BioAssay data set” (2004).

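1) Cells in 96-well plates. 2) Compound, 48 h, 5 concentrations. 3) Linear interpolation between surrounding doses. 4) Unreached endpoint = highest concentration. The concentration for 50% growth inhibition is given as GI50.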 Calls of active or inactive are those of the source. No stated cut-off is given here; in the data, active = GI50 up to about 1.1 µM and inactive = higher. Where a SMILES comes first, the peptide text is derived from it. [ ]: non-standard residue; d: D form. The star is where a group is joined. ξ: configuration not given here. X4 = COc1ccc(C(N*)c2ccc(OC)cc2)cc1; NMeF = CN[C@@H](Cc1ccccc1)C(=O)O; NMeD = CN[C@@H](CC(=O)O)C(=O)O; NMeV = CN[C@H](C(=O)O)C(C)C; ξNMeV = CNC(C(=O)O)C(C)C; Boc = CC(C)(C)OC(=O)*; ξNMeA = CNC(C)C(=O)O; ξV = CC(C)C(N)C(=O)O

Test systems include BT-549; CAKI-1; HCC 2998; HCT-116; HL-60; HOP-62; KM12; M14; MDA-MB-435; NCI-H23; NCI-H460; NCI-H522; NCI/ADR-RES; OVCAR-4; SK-MEL-5; SNB-19; SW-620; TK-10; UACC-62; UO-31.
Assay in all cases: inhibition of tumour cell growth, NCI panel, 48 h

For the compound `CC(C)/C(Cl)=N/OC(=O)Nc1ccc(OC(F)(F)F)cc1`, the GI50 in the test on BT-549 is 16.3 µM (inactive); in the test with CAKI-1, 5.2 µM (inactive); in the test with HCC 2998 it was 16.7 µM (inactive); with HCT-116, 6.65 µM (inactive); in the test with HL-60, 1.97 µM (inactive); in the test with HOP-62, 17.7 µM (inactive). Moreover, the GI50 in the test on KM12 was 16.6 µM (inactive); in the test on M14, 3.78 µM (inactive); with MDA-MB-435 it was 12.6 µM (inactive); with NCI-H23 it was 15.7 µM (inactive); in the test with NCI-H460, 16.6 µM (inactive); in the test with NCI-H522, 1.47 µM (inactive). Moreover, the GI50 was 17 µM (inactive) with NCI/ADR-RES; 4.19 µM (inactive) in the test with OVCAR-4; 7.14 µM (inactive) in the test on SK-MEL-5; 17.7 µM (inactive) in the test on SNB-19; 1.77 µM (inactive) in the test with SW-620; 15.9 µM (inactive) with TK-10. Besides, the GI50 in the test on UACC-62 is 16.3 µM (inactive); in the test on UO-31, 10.8 µM (inactive).

In the case of `Cc1ccc2occ/c(=N\Nc3ccccc3)c2c1`, the GI50 was > 100 µM (inactive) with BT-549; 54 µM (inactive) with CAKI-1; > 100 µM (inactive) with HCC 2998; 47.2 µM (inactive) with HCT-116; > 100 µM (inactive) in the test with HL-60; 32.6 µM (inactive) in the test with HOP-62. Besides, the GI50 in the test on KM12 was 12.7 µM (inactive); in the test with M14, 43 µM (inactive); in the test on MDA-MB-435, 17.9 µM (inactive); in the test on NCI-H23, 28.1 µM (inactive); in the test on NCI-H460, 56.9 µM (inactive); in the test with NCI-H522, 84.7 µM (inactive). For the same compound, the GI50 in the test on NCI/ADR-RES was 39 µM (inactive); in the test with OVCAR-4, 13.2 µM (inactive); in the test on SK-MEL-5 it was 41.5 µM (inactive); with SNB-19, > 100 µM (inactive); in the test with SW-620 it was > 100 µM (inactive); with TK-10, > 100 µM (inactive). Moreover, the GI50 with UACC-62 is > 100 µM (inactive); in the test with UO-31 it was 70.8 µM (inactive).

As for `COc1ccc(C(NC(=O)C[C@@H](C(=O)N(C)C(C)C(=O)O)N(C)C(=O)[C@@H]2CCCN2C(=O)[C@H](C(C)C)N(C)C(=O)C(C(C)C)N(C)C(=O)[C@H](Cc2ccccc2)N(C)C(=O)C(NC(=O)OC(C)(C)C)C(C)C)c2ccc(OC)cc2)cc1` (stereo not given in full) (Boc-[ξV][NMeF][ξNMeV][NMeV]P[NMeD](X4)[ξNMeA]-OH), the GI50 is 6.73 µM (inactive) in the test on BT-549; 29.6 µM (inactive) in the test on CAKI-1; 6.76 µM (inactive) in the test with HCC 2998; 13.1 µM (inactive) in the test with HCT-116; 8 µM (inactive) in the test with HL-60; 13.4 µM (inactive) in the test on HOP-62. In addition, the GI50 with KM12 is 7.18 µM (inactive); in the test with M14, 11.8 µM (inactive); in the test with MDA-MB-435 it was 9.1 µM (inactive); in the test with NCI-H23, 10.4 µM (inactive); in the test with NCI-H460, 24.5 µM (inactive); in the test with NCI-H522, 11.5 µM (inactive). For the same compound, the GI50 in the test with NCI/ADR-RES is > 37.5 µM (inactive); with OVCAR-4, 17.5 µM (inactive); with SK-MEL-5, 6.52 µM (inactive); in the test with SNB-19, 22.4 µM (inactive); with SW-620, 8.18 µM (inactive); in the test on TK-10 it was 23.7 µM (inactive). The GI50 in the test with UACC-62 is 6.73 µM (inactive); in the test with UO-31, 24.8 µM (inactive).

Turning to `O=Nn1c2ccccc2c2ccccc21`, the GI50 was 73.1 µM (inactive) with BT-549; 44.4 µM (inactive) in the test with CAKI-1; 17.1 µM (inactive) with HCC 2998; 85.9 µM (inactive) in the test with HCT-116; 59.3 µM (inactive) in the test with HL-60; > 100 µM (inactive) in the test with HOP-62. Moreover, the GI50 in the test with KM12 was 34.3 µM (inactive); in the test with M14 it was 74.1 µM (inactive); in the test on MDA-MB-435, 77.4 µM (inactive); in the test on NCI-H23, 58.2 µM (inactive); in the test with NCI-H460, 9.86 µM (inactive); with NCI-H522, 38.6 µM (inactive). The GI50 in the test with NCI/ADR-RES is 52.8 µM (inactive); in the test on OVCAR-4 it was 90.8 µM (inactive); in the test on SK-MEL-5 it was 63.1 µM (inactive); in the test with SNB-19, 88.9 µM (inactive); with SW-620, 66.8 µM (inactive); in the test with TK-10, 70.5 µM (inactive). The GI50 in the test on UACC-62 was 45.7 µM (inactive); in the test with UO-31, 34.4 µM (inactive).

On to `O=C(NCCN(CCNC(=O)c1cccc(O)c1O)CCNC(=O)c1cccc(O)c1O)c1cccc(O)c1O` [TRENCAM], for which the GI50 with BT-549 was 23.2 µM (inactive); in the test on CAKI-1 it was 21.9 µM (inactive); in the test with HCC 2998, 3.4 µM (inactive); in the test with HCT-116, 4.2 µM (inactive); with HL-60 it was 8.02 µM (inactive); with HOP-62 it was 6.59 µM (inactive). For the same compound, the GI50 was 4.4 µM (inactive) with KM12; 5.55 µM (inactive) with M14; 21.7 µM (inactive) with MDA-MB-435; 11.5 µM (inactive) with NCI-H23; 4.38 µM (inactive) in the test with NCI-H460; 0.826 µM (active) in the test with NCI-H522. In addition, the GI50 was 49.4 µM (inactive) with NCI/ADR-RES; 0.578 µM (active) with OVCAR-4; 2.75 µM (inactive) in the test on SK-MEL-5; 5.22 µM (inactive) with SNB-19; 2.4 µM (inactive) with SW-620; > 56.1 µM (inactive) in the test with TK-10. Besides, the results for the GI50 in the test on UACC-62 and in the test on UO-31 were 4.78 µM (inactive) and 14.9 µM (inactive), respectively.

Turning to `COc1cc(/C=C2/SC(c3ccccc3)N(c3ccc(NC(C)=O)cc3)C2=O)cc(OC)c1OC` (stereo not given), the GI50 in the test on BT-549 was > 100 µM (inactive); in the test with CAKI-1, > 100 µM (inactive); in the test on HCC 2998, > 100 µM (inactive); with HCT-116 it was > 100 µM (inactive); with HL-60 it was 66.4 µM (inactive); in the test with HOP-62, > 100 µM (inactive). Further, the GI50 in the test on KM12 is 91.4 µM (inactive); in the test with M14, > 100 µM (inactive); in the test with MDA-MB-435, 66.4 µM (inactive); in the test with NCI-H23 it was > 100 µM (inactive); in the test on NCI-H460, > 100 µM (inactive); in the test on NCI-H522 it was 28.1 µM (inactive). The GI50 in the test with NCI/ADR-RES was > 100 µM (inactive); in the test on OVCAR-4, > 100 µM (inactive); in the test on SK-MEL-5, 34.4 µM (inactive); in the test with SNB-19 it was > 100 µM (inactive); in the test with SW-620 it was > 100 µM (inactive); in the test on TK-10 it was > 100 µM (inactive). In addition, the GI50 was > 100 µM (inactive) in the test on UACC-62 and 48.8 µM (inactive) with UO-31.

For the compound `CCOc1cc(C2SCC(=O)N2c2nc3cc4sc(N5C(=O)CSC5c5ccc(O)c(OCC)c5)nc4cc3s2)ccc1O` (stereo not given), the GI50 in the test on BT-549 is 9.59 µM (inactive); with CAKI-1, > 50.7 µM (inactive); in the test on HCC 2998, > 100 µM (inactive); with HCT-116, 20.9 µM (inactive); with HL-60 it was 61.2 µM (inactive); with HOP-62, > 100 µM (inactive). The GI50 in the test with KM12 was 45.3 µM (inactive); in the test with M14, > 100 µM (inactive); with MDA-MB-435, 29.9 µM (inactive); in the test on NCI-H23, 9.59 µM (inactive); with NCI-H460, 2.37 µM (inactive); in the test on NCI-H522, 20.4 µM (inactive). Moreover, the GI50 with NCI/ADR-RES is 8.2 µM (inactive); with OVCAR-4 it was 48.4 µM (inactive); in the test on SK-MEL-5, 59.2 µM (inactive); in the test on SNB-19, 41.3 µM (inactive); in the test with SW-620, 27.1 µM (inactive); in the test on TK-10, > 100 µM (inactive). The GI50 is 98.6 µM (inactive) in the test with UACC-62 and 21.4 µM (inactive) in the test on UO-31.
